From article PMC9481608, “Synthesis of natural product hybrids by the Ugi reaction in complex media containing plant extracts” (Scientific Reports, 2022) come the findings set out here.

SMILES strings stand for the structures. Where two headings read alike, the source gives them in different places.

For assay [1], the target named is T1, α-chymotrypsin (bovine pancreatic) (Bos taurus, UniProt P00766).
T1 construct: native enzyme from bovine pancreas, commercial, used as received
In words: chromogenic protease inhibition assay, absorbance at […] nm. The assay is classed as biochemical. The conditions noted are these: 100 μM SAAPFpNA, 6 nM enzyme, 80 mM Tris-HCl pH 7.8, 10 mM CaCl2, 25 °C, 30 min preincubation, 3% DMSO.

Assay [2] addresses T1, α-chymotrypsin (bovine pancreatic). The assay is described as above. It counts as biochemical.
The target is the same in assay [3]. The assay is described as follows: biochemical. More on the design: alpha-chymotrypsin inhibition, SAAPFpNA (100 uM) hydrolysis, absorbance at 410 nm, 25 °C, pH 7.8. As to the method:
Bovine pancreatic α-chymotrypsin was purchased from Sigma-Aldrich (C4129) and used as received. Enzyme solutions were kept on ice during the experiments. The molecular mass of α-chymotrypsin was taken as 25 kDa. N-Succinyl-L-alanine-L-alanine-L-proline-L-phenylalanine-p-nitroanilide (SAAPFpNA) was purchased from Sigma-Aldrich (S7388), prepared as a 10 mM stock solution in DMSO, and stored at − 30 °C. A microbial chymostatin, a mixture of chymostatin A–C, was purchased from Peptide Institute (4063) and used as a positive control. DMSO for biochemical research was purchased from Nacalai and used as received. Other reagents were purchased from Nacalai and used as received. The concentration–response curves were plotted and IC50 values were calculated by GraphPad Prism 8 software using a sigmoidal concentration–response curve analysis with variable slope. Absorbance was measured with a JASCO V-660 spectrometer at 25 °C. According to the reported procedure, the assay was performed in Tris–HCl buffer (80 mM, pH 7.8) containing α-chymotrypsin (6 nM, final concentration) and CaCl2 (10 mM, final concentration). After 30 min of incubation with the test compound at 25 °C, the enzymatic reaction was initiated by adding SAAPFpNA (100 μM, final concentration) to give a final volume of 700 μL. Reaction progress was monitored by absorbance at 410 nm at 25 °C for 5 min. The final concentration of DMSO was 3% (v/v). The prepared Ugi adducts have a diamide motif and were therefore subjected to a protease inhibition assay. Protease inhibitors have received increasing attention for their therapeutic potential against respiratory virus infections including severe acute respiratory syndrome coronavirus 2 (SARS-CoV-2)[34],[35]. The inhibitory activity of the Ugi adducts was determined in the presence of 6 nM α-chymotrypsin and 100 μM succinyl-Ala-Ala-Pro-Phe-p-nitroanilide[36]. […] Thus, the proposed engineering method, although preliminary, can be used to create novel candidates for α-chymotrypsin inhibitors. Further structural optimization, such as removal of the benzyl group on the amide nitrogen, construction of a dipeptide motif, and installation of an aromatic amino acid residue at the C-terminal of dipeptides[37] will improve the inhibitory activities of the Ugi adducts and will be reported in due course. The molecular weights of the synthesized plant product-like molecules were in the range of 492.70–1011.57 g mol^−1, which corresponds to the category of beyond the rule of five (bRo5)[38], or middle-molecules. Therefore, the present chemical hybridization method could be used to construct a small library of middle-molecules mimicking natural products, which is useful for the discovery of peptidic modulators of protein–protein interactions. Ongoing biological evaluations of the present molecules will unveil their specific pharmaceutical potential.

With `CC(C)=C1C[C@@H]2[C@@H](CCC(C)(C(=O)NC3CCCCC3)N(Cc3ccccc3)C(=O)CCl)[C@]2(C)CC1=O` (mixture of isomers) [compound 4, Ugi adduct 4], in assay [1], the “% Inhibition (10 μM)^a” value is recorded as 3.1 ± 0.9%.

In the case of `CC(=O)N(Cc1ccccc1)C(C)(CC[C@@H]1[C@H]2CC(=C(C)C)C(=O)C[C@@]12C)C(=O)NC1CCCCC1` (mixture of isomers) [compound 5, Ugi adduct 5], the “% Inhibition (10 μM)^a” value in assay [1] was determined as 4.2 ± 1.7%.

For the compound `CCCCCC[C@@H](O)C/C=C\CCCCCCCC(=O)N(Cc1ccccc1)C(C)(CC[C@@H]1[C@H]2CC(=C(C)C)C(=O)C[C@@]12C)C(=O)NC1CCCCC1` (mixture of isomers) [compound 10, Ugi adduct 10], in assay [2], the concentration for half-maximal inhibition (IC50) (commonly the concentration at which inhibition is half-maximal) was determined as 7.7 ± 0.6 µM.

As for `CC(=O)N(Cc1ccccc1)C(CC(C)CCC=C(C)C)C(=O)NCS(=O)(=O)c1ccc(C)cc1` (racemic) [compound 2, Ugi adduct 2], the “% Inhibition (10 μM)^a” value in assay [1] stood at 9.2 ± 1.6%.

As for `Nc1ccc2ccc3cccc4ccc1c2c34` [1-Aminopyrene], the inhibition (in general, the share of the control response that was lost under treatment) at 10 µM in assay [3] (read-out: % Inhibition (10 μM)) came out at 5.6 ± 1%.

`Cc1ccc(S(=O)(=O)CNC(=O)C(c2ccccc2)N(Cc2ccccc2)C(=O)CCl)cc1` (stereo not shown) [1a, N-Benzyl-2-chloro-N-(2-oxo-1-phenyl-2-((tosylmethyl)amino)ethyl)acetamide] returned an inhibition at 10 µM in assay [3] of 4.7 ± 1.1%.

Turning to `O=C(NC1CCCCC1)C(c1ccccc1)N(Cc1ccccc1)C(=O)CCl` (stereo not shown) [1b, N-Benzyl-2-chloro-N-(2-(cyclohexylamino)-2-oxo-1-phenylethyl)acetamide], 10 µM produced 9.2 ± 2% inhibition in assay [3].

In turn, `CC(C)C(C(=O)NC1CCCCC1)N(Cc1ccccc1)C(=O)CCl` (stereo not shown) [1c, 2-(N-Benzyl-2-chloroacetamido)-N-cyclohexyl-3-methylbutanamide] came in with an inhibition at 10 µM in assay [3] of 4.4 ± 2%.

`CC1=C(C(C(=O)NC2CCCCC2)N(Cc2ccccc2)C(=O)CCl)C(C)(C)CCC1` (stereo not shown) [1d, N-Benzyl-2-chloro-N-(2-(cyclohexylamino)-2-oxo-1-(2,6,6-trimethylcyclohex-1-en-1-yl)ethyl)acetamide] gave an inhibition at 10 µM in assay [3] of 8.9 ± 2.1%.

Regarding `O=C(CCl)N(Cc1ccccc1)C1(C(=O)NC2CCCCC2)CCCC1` [1e, 1-(N-Benzyl-2-chloroacetamido)-N-cyclohexylcyclopentane-1-carboxamide], in assay [3], the inhibition at 10 µM turned out to be 0.2 ± 0.8%.

In turn, `Cc1ccc(S(=O)(=O)CNC(=O)C2(N(Cc3ccccc3)C(=O)CCl)CCCC2)cc1` [1f, 1-(N-Benzyl-2-chloroacetamido)-N-(tosylmethyl)cyclopentane-1-carboxamide] displayed an inhibition at 10 µM in assay [3] of 7.1 ± 1%.

`O=C(NC1CCCCC1)C(c1ccccc1)N(C(=O)CCl)c1ccc2ccc3cccc4ccc1c2c34` (stereo not shown) [1g, 2-Chloro-N-(2-(cyclohexylamino)-2-oxo-1-phenylethyl)-N-(pyren-1-yl)acetamide]: in assay [3], half-maximal inhibition (IC50) was put at 4.5 ± 0.3 µM and the inhibition at 10 µM was 83.7 ± 1.8%.

As to `CC(=O)N(Cc1ccccc1)C(C(=O)NC1CCCCC1)c1ccccc1` (stereo not shown) [1h, 2-(N-Benzylacetamido)-N-cyclohexyl-2-phenylacetamide], 10 µM produced 2.4 ± 1.6% inhibition in assay [3].

In the case of `O=C(NC1CCCCC1)C(c1ccccc1)N(Cc1ccccc1)C(=O)C1CCCCC1` (stereo not shown) [1i, N-Benzyl-N-(2-(cyclohexylamino)-2-oxo-1-phenylethyl)cyclohexanecarboxamide], testing at 10 µM in assay [3] gave an inhibition of 3.8 ± 0.4%.

As to `CC(C)=CCCC(C)CC(C(=O)NC1CCCCC1)N(Cc1ccccc1)C(=O)CC[C@@H](C)[C@H]1CC[C@H]2[C@@H]3[C@@H](O)C[C@@H]4C[C@H](O)CC[C@]4(C)[C@H]3CC[C@]12C` (stereo partly drawn) [1j, 2-((R)-N-Benzyl-4-((3R,5S,7S,8R,9S,10S,13R,14S,17R)-3,7-dihydroxy-10,13-dimethylhexadecahydro-1H-cyclopenta[a]phenanthren-17-yl)pentanamido)-N-cyclohexyl-4,8-dimethylnon-7-enamide], in assay [3], the IC50 was 9.2 ± 0.8 µM and 10 µM produced 62.3 ± 0.2% inhibition.

For the compound `CCCCCC[C@@H](O)C/C=C\CCCCCCCC(=O)N(Cc1ccccc1)C(CC(C)CCC=C(C)C)C(=O)NC1CCCCC1` (stereo partly shown) [8a, Ugi adduct 8a], in assay [2], inhibition was half-maximal at 7.3 ± 0.6 µM (IC50).

As to `CCCCCC[C@@H](O)C/C=C\CCCCCCCC(=O)O[C@@H](C/C=C\CCCCCCCC(=O)N(Cc1ccccc1)C(CC(C)CCC=C(C)C)C(=O)NC1CCCCC1)CCCCCC` (stereo partly shown) [8b, Ugi adduct 8b], the IC50 in assay [2] turned out to be 13.4 ± 1.3 µM.

With `CCCCCC[C@@H](O)C/C=C\CCCCCCCC(=O)O` [(R)-Ricinoleic acid], the inhibition at 10 µM in assay [3] (read-out: % Inhibition (10 μM)) worked out at 3 ± 0.9%.

In the case of `NCc1ccccc1` [Benzylamine], in assay [3] (read-out: % Inhibition (10 μM)), the inhibition at 10 µM was 7 ± 1.4%.

`CC(=O)CC[C@@H]1[C@H]2CC(=C(C)C)C(=O)C[C@@]12C` [Curcumenone (6)]: the inhibition at 10 µM in assay [3] (read-out: % Inhibition (10 μM)) was found to be 7.8 ± 1.2%.

As to `[C-]#[N+]CS(=O)(=O)c1ccc(C)cc1` [TosMIC], the inhibition at 10 µM in assay [3] (read-out: % Inhibition (10 μM)) worked out at 0.5 ± 0.5%.

`CC(C)=C1C[C@@H]2[C@@H](CCC(C)(C(=O)NC3CCCCC3)N(C(=O)CCl)c3ccc4ccc5cccc6ccc3c4c56)[C@]2(C)CC1=O` (stereo partly shown) [compound 7, Ugi adduct 7] gave an IC50 in assay [2] of 3.1 ± 0.1 µM.

The compound `CCCCCC[C@@H](O)C/C=C\CCCCCCCC(=O)N(Cc1ccccc1)C(C(=O)NC1CCCCC1)c1ccccc1` (stereo partly shown) [compound 9, Ugi adduct 9] returned a half-inhibitory concentration (IC50) in assay [2] of 7.9 ± 0.5 µM.
